Experimental data from patent US10369163B2, “Anti-fatigue composition” (AJINOMOTO CO., INC., priority 2013, dated 2019).

Experiments:
[1] = system: males feeling decrease in the quality of sleep and fatigue; test: Single histidine ingestion (VAS questionnaires, CogHealth); assay type: in vivo, human
From the text: Twenty males of 45 years old to less than 65 years old, who received total evaluation of not less than 17 points in the “self-diagnosis fatigue questionnaire” (Fatigue Science Laboratory Inc.), felt decrease in the quality of sleep (generally PSQI≥6), and obtained fatigue factor T scores of not less than 60 points in POMS performed in advance, were selected, and randomly divided into 2 groups (10 per group). The effect of single ingestion of histidine and control food (equal volume of cellulose) was compared in each group. As shown in the experiment protocol of FIG. 10A, the test subjects took the same meals for 3 days before the experiment, fasted for 10 to for 14 hr, and ingested capsules containing 1.65 g of L-histidine as a single ingestion amount (5 capsules (hard capsule #2 WHITE OP B/C) containing 0.33 g of L-histidine alone), or control sample capsules (5 capsules containing equal volume of cellulose). Before and 1 hr after ingestion of capsules, the test subjects answered the VAS questionnaires (fatigue, depression, vague sense, drowsiness, clear thinking, motivation, attentiveness, concentration) relating to fatigue, and cognitive function measurement task CogHealth (under higher difficulty conditions by simultaneously including mental arithmetic task as well) to measure intellectual performance which is one of the fatigue indices. Furthermore, they answered VAS questionnaires after completion of CogHealth.

[2] = system: males feeling decrease in the quality of sleep and fatigue; test: Crossover test of histidine ingestion for 14 days (POMS, VAS questionnaires, CogHealth); assay type: in vivo, human
From the text: Twenty males of 45 years old to less than 65 years old, who received total evaluation of not less than 17 points in the “self-diagnosis fatigue questionnaire” (Fatigue Science Laboratory Inc.), felt decrease in the quality of sleep (generally PSQI≥6), and obtained fatigue factor T scores of not less than 60 points in POMS, performed in advance, were selected, and randomly divided into 2 groups (10 per group). A crossover test, including ingesting histidine and control food (equal volume of cellulose) each for 14 days, was performed in each group. As shown in the experiment protocol of FIG. 9A, the test subjects ingested capsules containing 1.65 g of L-histidine as a daily ingestion amount (5 capsules (hard capsule #2 WHITE OP B/C) containing 0.33 g of L-histidine alone), or control sample capsules (5 capsules containing equal volume of cellulose) for 14 days. After the completion of 14 day ingestion, a 14 day resting period was taken. After the resting period, they ingested the capsules not ingested before the resting period. On the initial day and the day after completion of the capsule ingestion period, the test subjects answered POMS and the VAS questionnaires (fatigue, depression, vague sense, drowsiness, clear thinking, motivation, attentiveness, concentration) relating to fatigue, and cognitive function measurement task CogHealth (under higher difficulty conditions by simultaneously including mental arithmetic task as well) to measure intellectual performance which is one of the fatigue indices. Furthermore, they answered VAS questionnaires after completion of CogHealth.

[3] = Safety of His ingestion: general properties, hematology, blood biochemistry; assay type: in vivo, human; settings: ingestion of His (1.65 g, single or 14 days) in test subjects
[4] = system: CD2F1 mice; test: Y-maze test, short-working memory (alternation behavior) after 48 hr burden of insufficient sleep; assay type: in vivo, mouse; settings: His:VB6=360:1; His 900, VB6 2.5 mg/kg/day one week plus oral dose; FIG. 7B
Experimental: Using CD2F1 mice (9-10-week-old) in the group constitution shown in Table 4, the test was performed as shown in the experiment protocol (FIG. 4A). The His group and His+VB6 group were allowed to drink each solution freely for one week so that the ingestion amount of His would be 900 mg/kg/day, and the ingestion amount of the VB6 group and the His+VB6 group would be […]. As the feed, a feed having the composition of Table 5 was used. After ingestion of His or VB6, or both for one week, insufficient sleep was burdened for 48 hr by filling water in the breeding cage at the depth of 0.5 cm. The burden was released at 6 hr from the start of the light phase, and the mice were placed back in the home cage and allowed to rest for 6 hr. […] A Y-maze test was performed at 3 hr from the start of the dark phase, and short-working memory was measured. […] A Y-maze test was performed at 3 hr from the start of the dark phase, and short-working memory was measured. […] A Y-maze test was performed at 3 hr from the start of the dark phase, and short-working memory was measured. […] A Y-maze test was performed at 3 hr from the start of the dark phase, and short-working memory was measured. […]

[5] = single ingestion, after completion of CogHealth
[6] = single ingestion, before CogHealth, p<0.05, FIG. 10B
[7] = 14 days, after completion of CogHealth, p<0.05, FIG. 9E
[8] = 14 days, before CogHealth, vs control food, p<0.05, FIG. 9C

N[C@@H](Cc1c[nH]cn1)C(=O)O [His, histidine]
work time in 5 kinds of brain function measurement indices ([1]; single 1.65 g L-histidine, 1 hr after ingestion, vs control food): shortened
VAS sense of concentration [1, 5]: tended to increase
VAS sense of depression [1, 5]: tended to decrease
VAS vague sense ([1]; single ingestion, after completion of CogHealth, p<0.05): significantly decreased
VAS sense of concentration ([1]; single ingestion, before CogHealth, FIG. 10B): tended to increase
VAS sense of attentiveness [1, 6]: significantly increased
VAS sense of clear thinking [1, 6]: significantly increased
fatigue factor scores of POMS ([2]; 1.65 g L-histidine daily for 14 days vs control food, paired t-test p<0.05, FIG. 9B): significantly decreased
reaction time of cognitive function measurement task ([2]; 14 days, CogHealth, vs control food, FIG. 9D): shortened
reaction time of delayed recall task ([2]; 14 days, CogHealth, vs control food, p<0.05, FIG. 9D): significantly decreased
VAS sense of attentiveness [2, 7]: significantly increased
VAS sense of depression [2, 7]: significantly decreased
VAS sense of motivation [2, 7]: significantly increased
VAS sense of attentiveness [2, 8]: significantly increased
VAS sense of clear thinking [2, 8]: significantly increased
VAS sense of motivation [2, 8]: significantly increased
variation in general properties, hematology, and blood biochemistry [3]: did not show problematic variation
alternation behavior as compared to the VB6 group [4]: significant increase
